ChEMBL document CHEMBL1201862, “PubChem BioAssay data set” (2004)
Where “and” joins values, the source holds several entries; their conditions need not be identical. Equal entries are not always repeated.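 Compound exposure: 48 hours, 5 concentrations, 96-well plates. GI50 = concentration required for 50% inhibition of growth.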 Calls of active or inactive are those of the source. Cut-off read from the data, not from the text of the source: active = GI50 up to about 1.1 µM and inactive = higher.

Legend:
Assay in all cases: growth of human tumour cells (NCI), 48 h
NCI-H226 = tested on: NCI-H226
NCI-H460 = tested on: NCI-H460
EKVX = tested on: EKVX
SNB-19 = tested on: SNB-19
HCC 2998 = tested on: HCC 2998
HCT-116 = tested on: HCT-116
RPMI-8226 = tested on: RPMI-8226
HCT-15 = tested on: HCT-15
U-251 = tested on: U-251
M14 = tested on: M14
UO-31 = tested on: UO-31
SNB-75 = tested on: SNB-75
OVCAR-5 = tested on: OVCAR-5
HL-60 = tested on: HL-60
T47D = tested on: T47D
COLO 205 = tested on: COLO 205
Hs-578T = tested on: Hs-578T
KM12 = tested on: KM12
MOLT-4 = tested on: MOLT-4
A549 = tested on: A549
DU-145 = tested on: DU-145
OVCAR-8 = tested on: OVCAR-8
UACC-257 = tested on: UACC-257
HOP-92 = tested on: HOP-92
RXF 393 = tested on: RXF 393
SF-268 = tested on: SF-268
SK-OV-3 = tested on: SK-OV-3
SF-295 = tested on: SF-295
OVCAR-4 = tested on: OVCAR-4
HT-29 = tested on: HT-29
786-0 = tested on: 786-0
SR = tested on: SR
NCI-H23 = tested on: NCI-H23
Malme-3M = tested on: Malme-3M
HOP-62 = tested on: HOP-62
NCI/ADR-RES = tested on: NCI/ADR-RES
SN12C = tested on: SN12C
UACC-62 = tested on: UACC-62
MCF7 = tested on: MCF7
LOX IMVI = tested on: LOX IMVI
ACHN = tested on: ACHN
A498 = tested on: A498
SK-MEL-5 = tested on: SK-MEL-5
IGROV-1 = tested on: IGROV-1
MDA-MB-231 = tested on: MDA-MB-231
SF-539 = tested on: SF-539
MDA-MB-435 = tested on: MDA-MB-435
TK-10 = tested on: TK-10
CCRF-CEM = tested on: CCRF-CEM
SK-MEL-28 = tested on: SK-MEL-28
SW-620 = tested on: SW-620
PC-3 = tested on: PC-3
SK-MEL-2 = tested on: SK-MEL-2
K562 = tested on: K562
NCI-H522 = tested on: NCI-H522
OVCAR-3 = tested on: OVCAR-3
MDA-N = tested on: MDA-N

`c1ccc(CN2CCC(Nc3ccccc3)(c3nnnn3Cc3ccccc3)CC2)cc1` was tested, and the GI50 (NCI-H226) was 42.7 µM (inactive), the GI50 (NCI-H460) was 15.7 µM (inactive) and the GI50 (EKVX) was 23.8 µM (inactive). For the same compound, the GI50 (SNB-19) was 27.3 µM (inactive), the GI50 (HCC 2998) was 3.01 µM (inactive) and the GI50 (HCT-116) was 20.1 µM (inactive). For the same compound, the GI50 (RPMI-8226) was 12.9 µM (inactive), the GI50 (HCT-15) was 27.5 µM and the GI50 (U-251) was 22.6 µM (inactive). For the same compound, the GI50 (M14) was 16.1 µM (inactive), the GI50 (UO-31) was 6.12 µM (inactive) and the GI50 (SNB-75) was 22.7 µM (inactive). For the same compound, the GI50 (OVCAR-5) was 22.5 µM (inactive), the GI50 (HL-60) was 11.5 µM (inactive) and the GI50 (T47D) was 19.5 µM (inactive). The GI50 (COLO 205) was 11.6 µM (inactive), the GI50 (Hs-578T) was 24.2 µM (inactive) and the GI50 (KM12) was 13.3 µM (inactive). For the same compound, the GI50 (MOLT-4) was 10.1 µM (inactive), the GI50 (A549) was 32.2 µM (inactive) and the GI50 (DU-145) was 38.4 µM (inactive). For the same compound, the GI50 (OVCAR-8) was 32.8 µM (inactive), the GI50 (UACC-257) was 14.1 µM (inactive) and the GI50 (HOP-92) was 5.37 µM (inactive). The GI50 (RXF 393) was 27.4 µM (inactive), the GI50 (SF-268) was > 100 µM (inactive) and the GI50 (SK-OV-3) was 70.1 µM (inactive). The GI50 (SF-295) was 20.5 µM (inactive), the GI50 (OVCAR-4) was 29.6 µM (inactive) and the GI50 (HT-29) was 11.6 µM (inactive). For the same compound, the GI50 (786-0) was 22.4 µM (inactive), the GI50 (SR) was 8.77 µM (inactive) and the GI50 (NCI-H23) was 50 µM (inactive). The GI50 (Malme-3M) was 18.5 µM (inactive), the GI50 (HOP-62) was 45.7 µM (inactive) and the GI50 (NCI/ADR-RES) was 24.5 µM (inactive). The GI50 (SN12C) was 39.7 µM (inactive), the GI50 (UACC-62) was 23.6 µM (inactive) and the GI50 (MCF7) was 22.4 µM (inactive). For the same compound, the GI50 (LOX IMVI) was 20.1 µM (inactive), the GI50 (ACHN) was 35 µM (inactive) and the GI50 (A498) was 17.2 µM (inactive). The GI50 (SK-MEL-5) was 13 µM (inactive), the GI50 (IGROV-1) was 28.1 µM (inactive) and the GI50 (MDA-MB-231) was 27.2 µM (inactive). For the same compound, the GI50 (SF-539) was 20.5 µM (inactive), the GI50 (MDA-MB-435) was 32.9 µM (inactive) and the GI50 (TK-10) was 29.2 µM (inactive). For the same compound, the GI50 (CCRF-CEM) was 20 µM (inactive), the GI50 (SK-MEL-28) was 17.2 µM (inactive) and the GI50 (SW-620) was 22.2 µM (inactive).
For `Cc1ncc([N+](=O)[O-])n1CC(O)Cn1ccnc1[N+](=O)[O-]` (centres undefined), the GI50 (NCI-H226) was > 100 µM (inactive), the GI50 (NCI-H460) was > 100 µM (inactive) and the GI50 (EKVX) was > 100 µM (inactive). The GI50 (PC-3) was > 100 µM (inactive), the GI50 (HCC 2998) was > 100 µM (inactive) and the GI50 (HCT-116) was > 100 µM (inactive). For the same compound, the GI50 (RPMI-8226) was > 100 µM (inactive), the GI50 (HCT-15) was greater than 100 µM and the GI50 (U-251) was > 100 µM (inactive). For the same compound, the GI50 (SK-MEL-2) was > 100 µM (inactive), the GI50 (SNB-75) was > 100 µM (inactive) and the GI50 (OVCAR-5) was > 100 µM (inactive). The GI50 (HL-60) was > 100 µM (inactive), the GI50 (Hs-578T) was > 100 µM (inactive) and the GI50 (KM12) was > 100 µM (inactive). For the same compound, the GI50 (MOLT-4) was > 100 µM (inactive), the GI50 (A549) was > 100 µM (inactive) and the GI50 (K562) was > 100 µM (inactive). For the same compound, the GI50 (OVCAR-8) was > 100 µM (inactive), the GI50 (UACC-257) was > 100 µM (inactive) and the GI50 (SF-268) was > 100 µM (inactive). For the same compound, the GI50 (SF-295) was > 100 µM (inactive), the GI50 (HT-29) was > 100 µM (inactive) and the GI50 (786-0) was > 100 µM (inactive). The GI50 (SR) was > 100 µM (inactive), the GI50 (NCI-H23) was > 100 µM (inactive) and the GI50 (Malme-3M) was > 100 µM (inactive). For the same compound, the GI50 (HOP-62) was > 100 µM (inactive), the GI50 (SN12C) was > 100 µM (inactive) and the GI50 (MCF7) was > 100 µM (inactive). For the same compound, the GI50 (ACHN) was > 100 µM (inactive), the GI50 (A498) was > 100 µM (inactive) and the GI50 (SK-MEL-5) was > 100 µM (inactive). The GI50 (SF-539) was > 100 µM (inactive), the GI50 (NCI-H522) was > 100 µM (inactive) and the GI50 (TK-10) was > 100 µM (inactive). The GI50 (OVCAR-3) was > 100 µM (inactive), the GI50 (CCRF-CEM) was > 100 µM (inactive) and the GI50 (SK-MEL-28) was > 100 µM (inactive). For the same compound, the GI50 (SW-620) was > 100 µM (inactive).
`CC(C)(C)[Si](C)(C)OCC1OC(n2cc(I)c(N)nc2=O)C(O[Si](C)(C)C(C)(C)C)C1O[Si](C)(C)C(C)(C)C` (centres undefined) was tested, and the GI50 (NCI-H460) was 7.19 µM (inactive), the GI50 (EKVX) was 18.6 µM (inactive) and the GI50 (PC-3) was 3.4 µM (inactive). The GI50 (HCT-116) was 9.42 µM (inactive), the GI50 (HCT-15) was 18.6 µM and the GI50 (M14) was 5.04 µM (inactive). The GI50 (SK-MEL-2) was 5.02 µM (inactive), the GI50 (SNB-75) was 14.3 µM (inactive) and the GI50 (T47D) was > 10 µM (inactive). The GI50 (COLO 205) was 16.1 µM (inactive), the GI50 (Hs-578T) was 11.4 µM (inactive) and the GI50 (MOLT-4) was 2.5 µM (inactive). The GI50 (A549) was 6.58 µM (inactive), the GI50 (DU-145) was 13.3 µM (inactive) and the GI50 (OVCAR-8) was 12.5 µM (inactive). The GI50 (UACC-257) was 11.5 µM (inactive), the GI50 (HOP-92) was 19.1 µM (inactive) and the GI50 (SF-268) was 12.7 µM (inactive). The GI50 (SK-OV-3) was 15.5 µM (inactive), the GI50 (SF-295) was 3.16 µM (inactive) and the GI50 (HT-29) was 5.26 µM (inactive). The GI50 (786-0) was 1.99 µM (inactive), the GI50 (SR) was 5.37 µM (inactive) and the GI50 (Malme-3M) was 11.3 µM (inactive). For the same compound, the GI50 (HOP-62) was 14.5 µM (inactive), the GI50 (NCI/ADR-RES) was 34.1 µM (inactive) and the GI50 (SN12C) was 8.28 µM (inactive). The GI50 (UACC-62) was 10.3 µM (inactive), the GI50 (LOX IMVI) was 5.43 µM (inactive) and the GI50 (ACHN) was 10.2 µM (inactive). The GI50 (SK-MEL-5) was 10.4 µM (inactive), the GI50 (IGROV-1) was 5.73 µM (inactive) and the GI50 (MDA-MB-231) was 13.3 µM (inactive). The GI50 (NCI-H522) was 3.56 µM (inactive), the GI50 (OVCAR-3) was 10.5 µM (inactive) and the GI50 (MDA-N) was 12.2 µM (inactive). For the same compound, the GI50 (SW-620) was 4.58 µM (inactive).
With `CN1C2CC(C#N)C1C=CC2=O` (centres undefined) the GI50 (SNB-19) was 87.1 µM (inactive), the GI50 (SK-MEL-2) was 29 µM (inactive) and 33.7 µM (inactive) and the GI50 (HL-60) was 18.9 µM (inactive) and 34.1 µM (inactive). The GI50 (SK-OV-3) was 43.1 µM (inactive) and 24.8 µM (inactive) and the GI50 (MCF7) was 33.3 µM (inactive) and 57.8 µM (inactive).
`NC(CN(O)N=O)C(=O)O` (centres undefined) [LALANOSINE] was tested, and the GI50 (SK-MEL-2) was > 100 µM (inactive) and 70 µM (inactive), the GI50 (OVCAR-5) was 3.73 µM (inactive) and 4.13 µM (inactive) and the GI50 (HL-60) was 11.4 µM (inactive). For the same compound, the GI50 (T47D) was 87.9 µM (inactive), the GI50 (KM12) was 304 nM (active) and 360 nM (active) and the GI50 (MOLT-4) was 40 µM (inactive) and 29.2 µM (inactive). The GI50 (A549) was 268 nM (active) and 204 nM (active), the GI50 (DU-145) was > 100 µM (inactive) and the GI50 (OVCAR-8) was 12.5 µM (inactive) and 23.8 µM (inactive). For the same compound, the GI50 (SF-295) was 8.36 µM (inactive) and 8.63 µM (inactive), the GI50 (HT-29) was 10.1 µM (inactive) and 17.7 µM (inactive) and the GI50 (NCI/ADR-RES) was 18.7 µM (inactive). The GI50 (LOX IMVI) was 412 nM (active) and 333 nM (active), the GI50 (ACHN) was 1.42 µM (inactive) and 1.82 µM (inactive) and the GI50 (MDA-MB-231) was 87.9 µM (inactive). The GI50 (SF-539) was 8.63 µM (inactive).
